These results are taken from patent publication US7786131B2, “Pyrimido[5,4-d]pyrimidines derivatives as irreversible inhibitors of tyrosine kinases” (Warner-Lambert Company, priority 1996, dated 2010).

Series [1] addresses T1, EGF receptor autophosphorylation in A431 cells (Homo sapiens, UniProt P00533).
T1 construct: A431 human epidermoid carcinoma cells were grown in 6-well plates; endogenous in cells; host or cells: A431 human epidermoid carcinoma cells
The experiment in a line: Irreversibility test: recovery of EGF receptor autophosphorylation after washout. Format: cell-based. To be noted: for % Control After 2-Hour Incubation / % Control After 8 Hours in Drug-Free Media Incubation: 2 μM inhibitor; for % Control After 2-Hour Incubation: EGFR autophosphorylation; for % Control After 8 Hours in Drug-Free Media Incubation: washed, 8 hours drug-free; for remaining activity at 2 µM: A-431, A431 cells treated 2 hours with 2 μM, read-out: % of Control Autophosphorylation.
Method: (§1) Extracts were made by lysing the monolayers in 0.2 mL of boiling Laemlli buffer (2% sodium dodecyl sulfate, 5% beta-mercaptoethanol, 10% glycerol and 50 mM tris[hydroxymethyl]aminomethane (Tris), pH 6.8), and the lysates were heated to 100° C. for 5 minutes. Proteins in the lysate were separated by polyacrylamide gel electrophoresis and electrophoretically transferred to nitrocellulose. The membrane was washed once in 10 mM Tris, pH 7.2, 150 mM NaCl, 0.01% Azide (TNA), and blocked overnight in TNA containing 5% bovine serum albumin and 1% ovalbumin. The membrane was blotted for 2 hours with antiphosphotyrosine antibody (UBI, 1 μg/mL in blocking buffer) and then washed twice in TNA, once in TNA containing 0.05% Tween-20 detergent and 0.05% nonidet P-40 detergent and twice in TNA. […] Band intensities were determined with a Molecular Dynamics laser densitometer.
Duplicate sets of cells were treated with 2 μM of designated compound to be tested as an irreversible inhibitor for either 1 or 2 hours. One set of cells was then stimulated with 100 ng/mL of EGF for 5 minutes and extracts made as described under the western blotting procedure. The other set of cells were washed free of the compound with warmed serum-free media, incubated for 2 hours, washed again, incubated another 2 hours, washed again, and then incubated a further 4 hours. This set of cells was then stimulated with EGF and extracts made similar to the first set of cells.

The target in series [2] is T1, EGF receptor autophosphorylation in A431 cells. Briefly: Autophosphorylation assay in A431 cells. Type of series: cell-based.
Method: as §1
Duplicate sets of cells were treated with a range of concentrations of the designated compound to be tested as an inhibitor for 15 minutes. The cells were then stimulated with 100 ng/mL of EGF for 5 minutes and extracts made as described under the Western Blotting Procedure.
For series [3], the target named is EGF receptor tyrosine kinase (Homo sapiens, UniProt P00533). The experiment in a line: Tyrosine kinase assay, isolated EGF receptor tyrosine kinase. Type of series: biochemical. To be noted: read-out: EGFR Tyrosine Kinase IC50.
Where [4] appears, read: EGF-stimulated EGFR autophosphorylation in A431 cells.

A word on the melting point: it is the temperature of the solid-liquid transition. The term IC50 denotes the concentration that inhibits the measured activity by half.

Molecules are shown by their SMILES. Like-named read-outs stand apart in the source and are kept apart here.

T1 sequence (P00533 25-1210): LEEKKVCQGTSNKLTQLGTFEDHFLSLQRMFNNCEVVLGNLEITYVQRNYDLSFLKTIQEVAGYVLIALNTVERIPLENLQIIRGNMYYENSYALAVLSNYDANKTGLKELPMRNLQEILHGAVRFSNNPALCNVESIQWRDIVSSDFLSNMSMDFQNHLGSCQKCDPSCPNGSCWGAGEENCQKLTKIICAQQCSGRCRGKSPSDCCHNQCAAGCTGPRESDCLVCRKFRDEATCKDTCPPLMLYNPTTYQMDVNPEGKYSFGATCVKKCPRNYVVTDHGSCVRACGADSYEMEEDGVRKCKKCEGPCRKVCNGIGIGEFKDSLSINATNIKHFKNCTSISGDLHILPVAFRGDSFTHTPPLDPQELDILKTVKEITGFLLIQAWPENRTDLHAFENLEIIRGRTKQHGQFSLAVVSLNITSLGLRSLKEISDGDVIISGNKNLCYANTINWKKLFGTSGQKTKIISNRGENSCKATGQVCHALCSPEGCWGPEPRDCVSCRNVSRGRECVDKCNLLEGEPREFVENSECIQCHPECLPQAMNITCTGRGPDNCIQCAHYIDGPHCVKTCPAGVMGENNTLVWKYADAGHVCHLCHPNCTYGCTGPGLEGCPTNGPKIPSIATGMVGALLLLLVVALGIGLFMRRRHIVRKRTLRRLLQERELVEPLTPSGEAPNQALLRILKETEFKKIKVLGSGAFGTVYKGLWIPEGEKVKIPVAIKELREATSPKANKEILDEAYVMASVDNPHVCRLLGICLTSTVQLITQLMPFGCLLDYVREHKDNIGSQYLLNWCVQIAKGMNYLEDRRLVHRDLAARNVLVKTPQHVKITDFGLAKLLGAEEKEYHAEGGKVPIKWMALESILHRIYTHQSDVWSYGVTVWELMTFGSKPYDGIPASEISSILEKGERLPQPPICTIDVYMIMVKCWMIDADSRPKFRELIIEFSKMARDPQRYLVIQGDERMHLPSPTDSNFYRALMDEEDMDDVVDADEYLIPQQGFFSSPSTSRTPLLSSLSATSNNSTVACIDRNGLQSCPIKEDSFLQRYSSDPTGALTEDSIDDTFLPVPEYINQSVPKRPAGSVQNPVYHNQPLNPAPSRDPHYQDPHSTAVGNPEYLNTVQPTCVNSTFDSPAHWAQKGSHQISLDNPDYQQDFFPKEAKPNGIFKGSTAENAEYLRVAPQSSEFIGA
Sequence of EGF receptor tyrosine kinase (P00533 25-1210): as above

For `C=CC(=O)Nc1cc2c(Nc3cccc(C)c3)ncnc2cc1OCCCN1CCOCC1` [Example 22, N-[4-[(3-Methylphenyl)amino]-7-[3-(4-moroholino)-propoxy]quinazolin-6-yl]acrylamide], the melting point lay within 69 to 72 °C. Besides, in series [1] (A431 cells), the “% Control After 2-Hour Incubation” value is 0% and the “% Control After 8 Hours in Drug-Free Media Incubation” value came to 0%. Besides, in series [2] (setting [4]), the 50% inhibitory concentration (IC50) came out at 27 nM. Moreover, in series [3] (isolated EGFR kinase), the IC50 came out at 1.5 nM.

Compound `C=CC(=O)Nc1cc2c(Nc3cccc(Br)c3)ncnc2cc1OCCCCN(C)C` [Example 26, N-[4-[(3-Bromophenyl)amino]-7-[4-(N,N-dimethyl-amino)butoxy]quinazolin-6-yl]acrylamide] showed a melting point of 112 to 115 °C. Further, in series [1] (A431 cells), the “% Control After 2-Hour Incubation” value is 0% and the “% Control After 8 Hours in Drug-Free Media Incubation” value was 0%. In series [2] (setting [4]), the IC50 is 3 nM. The IC50 in series [3] (isolated EGFR kinase) was determined as 1.7 nM.

With `C=CC(=O)Nc1ccc2ncnc(Nc3cccc(Br)c3)c2n1` [Example 41, N-[4-(3-Bromo-phenylamino)-pyrido [3,2-d]pyrimidin-6-yl]-acrylamide], the melting point lay in the range of 226 to 228 °C. For the same compound, in series [1] (A431 cells), the “% Control After 2-Hour Incubation” value amounted to 0% and the “% Control After 8 Hours in Drug-Free Media Incubation” value was 0%. In series [2] (setting [4]), the IC50 came to 5.6 nM. For the same compound, the IC50 in series [3] (isolated EGFR kinase) is 1.1 nM.

`C=CC(=O)Nc1cc2c(Nc3cccc(Br)c3)ncnc2cc1OCCCN1CCN(C)CC1` [Example 24, N-[4-[(3-Bromophenyl)amino]-7-[3-(4,N-methyl-1,N-piperazino)propoxy]quinazolin-6-yl]acrylamide] returned a melting point of 105 to 107 °C. Also, in series [2], inhibition was half-maximal at 7.9 nM (IC50). The IC50 in series [3] amounted to 4 nM.

Compound `C=CC(=O)Nc1ccc2c(c1)sc1c(Nc3cccc(Br)c3)ncnc12` [Example 44, N-[4-(3-Bromo-phenylamino)-benzo[b]thieno [3,2-d]pyrimidin-7-yl]acrylamide] displayed a melting point of 251 to 252.4 °C. In series [1] (A431 cells), the “% Control After 2-Hour Incubation” value is 13% and the “% Control After 8 Hours in Drug-Free Media Incubation” value is 42%. Further, the midpoint of inhibition in series [2] (setting [4]), the IC50, lay at 327 nM. In addition, in series [3] (isolated EGFR kinase), the IC50 amounted to 21 nM.

Consider `C=CC(=O)Nc1cc2c(Nc3cccc(C)c3)ncnc2cc1OCCCN1CCN(C)CC1` [Example 23, N-[4-[(3-Methylphenyl)amino]-7-[3-(4,N-methyl-1,N-piperazino)propoxy]quinazolin-6-yl]acrylamide], for which, in series [1] (A431 cells), the “% Control After 2-Hour Incubation” value came to 0%. Besides, in series [1] (A431 cells), the “% Control After 8 Hours in Drug-Free Media Incubation” value amounted to 0%. Also, the IC50 in series [2] (setting [4]) amounted to 18 nM; in series [3] (isolated EGFR kinase), 2 nM.

In the case of `C=CC(=O)N(CCCN1CCOCC1)c1ccc2c(Nc3cccc(Br)c3)ncnc2c1` [Example 4, N-[4-[(3-Bromophenyl)amino]quinazolin-7-yl]-N-[3-morpholinopropyl]acrylamide], the melting point is 86 to 88 °C (dec.). Further, in series [1] (A431 cells), the “% Control After 2-Hour Incubation” value amounted to 55% and the “% Control After 8 Hours in Drug-Free Media Incubation” value is 98%. Also, the IC50 in series [2] (setting [4]) was determined as 2090 nM. Also, the 50% inhibitory concentration (IC50) in series [3] (isolated EGFR kinase) is 89 nM.

As to `CC=CC(=O)Nc1ccc2c(Nc3cccc(Br)c3)ncnc2c1` [Example 9, But-2-enoic acid [4-(3-bromo-phenylamino)-quinazolin-7-yl]-amide], in series [1] (A431 cells), the “% Control After 2-Hour Incubation” value is given as 0%. Moreover, the “% Control After 8 Hours in Drug-Free Media Incubation” value in series [1] (A431 cells) amounted to 99%. Also, in series [1] (A431 cells, washout), the reversibility of inhibition result is on record as “completely reversible”. For the same compound, the remaining activity at 2 µM in series [1] (0 hours in drug-free media) came out at 4%; in series [1] (4 hours in drug-free media), 24%; in series [1] (8 hours in drug-free media), 100%; in series [1] (23 hours in drug-free media) it was 100%. Further, the IC50 in series [2] (setting [4]) is 20 nM; in series [3] (isolated EGFR kinase) it was 0.46 nM.

As for `C=CC(=O)Nc1ccc2c(Nc3cccc(C)c3)ncnc2c1` [Example 13, N-[4-(3-Methyl-phenylamino)-quinazolin-7-yl]acrylamide], the melting point was in the range of 269.7 to 270 °C. In series [1] (A431 cells), the “% Control After 2-Hour Incubation” value is given as 1% and the “% Control After 8 Hours in Drug-Free Media Incubation” value is listed as 90%. The IC50 in series [2] (setting [4]) amounted to 90 nM. Besides, the half-maximal inhibitory concentration (IC50) in series [3] (isolated EGFR kinase) is 1.6 nM.
